# According to article PMC9873282, “Design, synthesis and evaluation of quinoline-O-carbamate derivatives as multifunctional agents for the treatment of Alzheimer’s disease” (Journal of Enzyme Inhibition and Medicinal Chemistry, 2023):
# What was measured:
# eeAChE = molecular target: T1, eeAChE (Electrophorus electricus, UniProt O42275); experiment: biochemical; design: species or system electric eel
# T1 construct: eeAChE, from the electric eel; purchased Sigma Aldrich; host or cells: electric eel (natural source)
# Method: (§1) The inhibitory activities of the synthesised compounds against eeAChE (from electric eel) and eqBuChE (from equine serum) were tested by the modified Ellman’s method[26]^,[27]. […] The determination of AChE and BuChE inhibitory potency of the synthesised compounds were evaluated by Ellman assay, the detailed procedure referred to our previous work[26]^,[27].
# BV-2 cells = experiment: Cytotoxicity on BV-2 cells (CCK8 assay); assay type: cell-based; details: compounds at 2 µM
# Method: (§2) Firstly, the cytotoxicity of compounds 3a, 3c, 3e, 3f, 3k, 3m and 3n were tested using CCK8 assay.
# BV-2 cells were cultured in DMEM containing 10% foetal bovine serum, 100 U/mL penicillin, 100 U/mL streptomycin, and 1% nonessential amino acid at 37 °C with 5% CO2.
# BV-2 cells in logarithmic growth stage were digested and centrifuged, and then resuspended in DMEM medium containing 1% penicillin-streptomycin and 10% foetal bovine serum. The cells was adjusted to 1.2 × 10^4 cells/well, and then seeded evenly in 96-well cell culture plates. The cells were incubated for 36 h at 37 °C with 5% CO2. After incubation, the cells were added to different concentrations (10 and 2 µM) of tested compounds, and incubated for 24 h at 37 °C with 5% CO2. Then, 10 µL CCK-8 solution was added to each well, and incubated for another 1 h at 37 °C with 5% CO2. The OD values were tested at […]. The cell viability (%) = {(ODdrug−ODblank)}/{(ODcontrol−ODblank)} × 100%.
# NO = NO release in LPS-stimulated BV-2 cells (Griess method); assay type: cell-based; details: 1 µg/mL LPS 24 h
# Method: as §2
# (§3) BV-2 cells (2 × 10^5 cells/well) were seeded in a 24-well cell culture plates. The cells were divided into blank control group, model group (1 µg/mL LPS), LPS + 2 µM compound group, LPS + 1 µM compound group. Each drug group was pre-treated with corresponding concentration of drug solution for 8 h. After 8 h, the culture medium was aspirated out. Except for the blank control group, which was added with DMEM medium, the other groups were stimulated with 1 µg/mL LPS for 24 h. Then cell supernatant was aspirated and centrifuged at 3000 rpm for 3 min. The content of NO in cell culture supernatant was determined by Griess method, and the levels of cytokines IL-6 and IL-1β in cell culture supernatant were determined by IL-6 ELISA kit and IL-1β ELISA kit, respectively.
# [1] = system: Aβ25-35-induced PC12 cells injury; experiment: Neuroprotective effect on Aβ25-35-induced PC12 cells injury (CCK-8); assay type: cell-based; details: 25 µM Aβ25-35; model cell viability 57.3%
# Method: (§4) The neuroprotective effect of compounds 3a, 3c, 3e, 3f, 3k, 3m, and 3n on Aβ25–35-induced PC12 cells injury were evaluated using CCK-8 assay. […] Furthermore, as shown in Figure 12(B), when PC12 cells were exposed to 25 µM Aβ25-35, the cell viability sharply declined to 57.3% (p < 0.01) compared with untreated group.
# • Preparation of Aβ25-35 aggregation. Aβ25-35 was purchased from sigma. 1 mg Aβ25-35 was dissolved in 943 µL of sterilised deionised water to obtain 1 mM stock solution, aliquoted, –20 °C preservation. Removing the appropriate volume in a 48-well plate and incubated in a 37 °C incubator for two days to allow its ageing to accumulate and produce neurotoxicity. After aggregation was completed, the solution was diluted with PBS to get 25 µM solution of Aβ25-35 aggregation. • Neuroprotective effects of compounds on Aβ25-35-induced PC12 cells injury
# (§5) The PC12 cells during the logarithmic growth phase were digested and centrifuged with pancreatic enzyme solution, the cells were resuspended by adding the prepared media solution, and piped evenly with a pipette to seed in a 96-well cell culture plate (cell concentration adjusted to 2.0 × 10^4 cell·mL^−1). Each well was added 100 µL complete medium was added to each well and incubated at 37 °C and 5% CO2 for 24 h.
# After incubation for 24 h, PC12 cells were divided into blank group, control group, Aβ25-35 model group and tested compounds group (5, 10, 20 µM). Then the original medium was discarded, and 100 µL new complete medium were added to PC12 cells, and the tested compounds group was added to 100 µL complete medium containing different concentrations (5, 10, and 20 µM) of tested compounds, incubated for 2 h at 37 °C, 5% CO2 conditions. After incubation for 2 h, 10 µL Aβ25-35 solution was added to the tested compounds groups and model group (the final concentration of Aβ25-35 was 25 µM), and incubated for 24 h at 37 °C, 5% CO2 conditions, 10 µL CCK-8 was added to each well and further incubated for 1 h at 37 °C and 5% CO2. Finally, the OD value was measured at 450 nm using a microplate reader, and each concentration set three wells. The cell survival rate (%) was determined according to the following formula: cell viability (%) = {(ODdrug−ODblank)}/{(ODcontrol−ODblank)}.
# hAChE = molecular target: T2, hAChE (Homo sapiens, UniProt P22303); experiment: biochemical
# T2 construct: hAChE, from human erythrocytes AChE; purchased Sigma Aldrich; host or cells: human erythrocytes (natural source)
# Method: (§6) Acetylcholinesterase (eeAChE, from the electric eel; hAChE, from human erythrocytes AChE), butyrylcholinesterase (eqBuChE, from equine serum; hBuChE, human serum BuChE), 5,5′-dithiobis-2-nitrobenzoic acid (Ellman’s reagent, DTNB), acetylthiocholine chloride (ATC), and butyrylthiocholine chloride (BTC) were purchased form Sigma Aldrich. The determination of AChE and BuChE inhibitory potency of the synthesised compounds were evaluated by Ellman assay, the detailed procedure referred to our previous work[26]^,[27].
# hBuChE = molecular target: T3, hBuChE (Homo sapiens, UniProt P06276); experiment: biochemical
# T3 construct: hBuChE, human serum BuChE; purchased Sigma Aldrich; host or cells: human serum (natural source)
# Method: as §6
# IL-6 = IL-6 production in LPS-stimulated BV-2 cells (ELISA); assay type: cell-based; details: 1 µM and 2 µM; 1 µg/mL LPS 24 h
# Method: as §2, §3
# eqBuChE = molecular target: T4, eqBuChE (Equus caballus, UniProt P81908); experiment: biochemical; design: species or system equine
# T4 construct: eqBuChE, from equine serum; purchased Sigma Aldrich; host or cells: equine serum (natural source)
# Method: as §1
# PC12 cells = experiment: Cytotoxicity on PC12 cells; assay type: cell-based; details: at concentration below 40 µM
# Method: as §4, §5
# IL-1β = IL-1β production in LPS-stimulated BV-2 cells (ELISA); assay type: cell-based; details: 1 µg/mL LPS 24 h
# Method: as §2, §3
# T4 sequence (P81908 whole entry): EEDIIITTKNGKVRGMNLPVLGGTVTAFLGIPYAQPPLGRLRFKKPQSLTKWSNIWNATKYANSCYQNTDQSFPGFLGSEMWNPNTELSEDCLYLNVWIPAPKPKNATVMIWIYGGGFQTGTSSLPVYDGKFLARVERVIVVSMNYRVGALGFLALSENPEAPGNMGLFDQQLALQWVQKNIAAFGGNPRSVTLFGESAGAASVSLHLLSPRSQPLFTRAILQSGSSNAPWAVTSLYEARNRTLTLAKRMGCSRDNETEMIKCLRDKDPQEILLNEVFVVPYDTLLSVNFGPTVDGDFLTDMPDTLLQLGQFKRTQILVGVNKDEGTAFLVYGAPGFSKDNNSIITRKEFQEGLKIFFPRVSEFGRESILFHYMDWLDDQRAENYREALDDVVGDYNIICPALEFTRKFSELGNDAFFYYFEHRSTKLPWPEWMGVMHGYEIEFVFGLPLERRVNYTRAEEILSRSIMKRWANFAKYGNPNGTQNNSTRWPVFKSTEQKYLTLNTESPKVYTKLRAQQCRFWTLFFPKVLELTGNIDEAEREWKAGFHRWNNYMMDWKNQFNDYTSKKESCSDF
# T3 sequence (P06276 29-602): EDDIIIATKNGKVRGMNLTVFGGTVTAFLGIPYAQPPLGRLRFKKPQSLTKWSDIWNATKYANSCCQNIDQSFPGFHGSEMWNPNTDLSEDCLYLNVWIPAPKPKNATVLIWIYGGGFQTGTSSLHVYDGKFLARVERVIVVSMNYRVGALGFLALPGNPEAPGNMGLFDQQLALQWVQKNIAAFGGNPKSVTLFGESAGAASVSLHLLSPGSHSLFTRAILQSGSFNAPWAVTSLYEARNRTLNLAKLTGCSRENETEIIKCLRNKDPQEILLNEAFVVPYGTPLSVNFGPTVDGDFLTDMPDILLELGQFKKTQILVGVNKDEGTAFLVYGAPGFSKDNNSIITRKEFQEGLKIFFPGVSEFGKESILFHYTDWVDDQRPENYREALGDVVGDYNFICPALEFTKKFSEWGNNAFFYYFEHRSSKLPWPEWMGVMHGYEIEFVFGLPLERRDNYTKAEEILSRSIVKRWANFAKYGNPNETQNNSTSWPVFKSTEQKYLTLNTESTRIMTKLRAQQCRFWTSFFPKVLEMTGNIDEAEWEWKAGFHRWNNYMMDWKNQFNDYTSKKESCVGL
# T1 sequence (O42275 24-633): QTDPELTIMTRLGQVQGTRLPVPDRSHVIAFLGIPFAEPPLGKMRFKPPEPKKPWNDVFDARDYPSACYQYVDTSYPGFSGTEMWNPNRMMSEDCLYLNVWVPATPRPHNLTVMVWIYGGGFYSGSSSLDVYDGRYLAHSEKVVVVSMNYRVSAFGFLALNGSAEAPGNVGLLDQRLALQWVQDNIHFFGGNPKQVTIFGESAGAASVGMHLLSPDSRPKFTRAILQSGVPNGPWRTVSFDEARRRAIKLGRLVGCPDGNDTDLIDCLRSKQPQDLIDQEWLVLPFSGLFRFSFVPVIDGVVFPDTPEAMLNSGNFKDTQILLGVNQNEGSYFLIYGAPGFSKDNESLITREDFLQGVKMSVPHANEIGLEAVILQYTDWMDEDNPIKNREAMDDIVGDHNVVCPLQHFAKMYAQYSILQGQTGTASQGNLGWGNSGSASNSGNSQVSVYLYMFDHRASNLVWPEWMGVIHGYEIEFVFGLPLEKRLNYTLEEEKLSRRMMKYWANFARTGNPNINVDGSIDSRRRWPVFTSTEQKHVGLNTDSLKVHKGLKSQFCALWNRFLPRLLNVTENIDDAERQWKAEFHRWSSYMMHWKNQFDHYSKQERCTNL
# T2 sequence (P22303 32-617 isoform P22303-2 limits assumed): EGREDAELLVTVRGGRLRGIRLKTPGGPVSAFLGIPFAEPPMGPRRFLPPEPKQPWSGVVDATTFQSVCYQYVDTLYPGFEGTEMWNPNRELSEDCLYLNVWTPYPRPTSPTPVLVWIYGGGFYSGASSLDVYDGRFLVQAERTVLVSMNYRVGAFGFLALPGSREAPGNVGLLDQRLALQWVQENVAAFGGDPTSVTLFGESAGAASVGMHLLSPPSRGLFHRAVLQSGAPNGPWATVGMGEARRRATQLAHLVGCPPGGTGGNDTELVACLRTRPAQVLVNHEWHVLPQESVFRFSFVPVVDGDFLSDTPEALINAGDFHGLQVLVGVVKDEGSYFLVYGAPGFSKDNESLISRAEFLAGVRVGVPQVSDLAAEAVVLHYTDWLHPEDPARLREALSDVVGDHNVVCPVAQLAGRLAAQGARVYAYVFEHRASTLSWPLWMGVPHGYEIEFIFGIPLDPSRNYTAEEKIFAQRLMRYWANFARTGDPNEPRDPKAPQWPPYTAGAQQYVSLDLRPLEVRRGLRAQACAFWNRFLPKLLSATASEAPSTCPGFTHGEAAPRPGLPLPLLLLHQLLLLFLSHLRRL
smiles,measurement,setting,value
"CN(C)C(=O)Oc1cccc2ncccc12 [Compound 3e, Quinolin-5-yl dimethylcarbamate]",IC50,eeAChE,4.5 ± 0.04 µM
same,cell viability of BV-2 cells,BV-2 cells,did not show obvious change
same,release volume of NO,NO,significantly decreased
same,neuroprotective effect on Aβ25-35-induced PC12 cells injury,[1],remarkable neuroprotective effects at 5 and 10 µM
same,IC50,hAChE,10.4 ± 0.21 µM
same,IC50,"hBuChE; IC50 ± SD hBuChE, from human serum",3.7 ± 0.05 µM
same,SI = IC50 (AChE)/IC50 (BuChE),hBuChE; hAChE/hBuChE,2.8
same,levels of IL-6 compared with model group,IL-6,significantly decreased
same,IC50,"eqBuChE; IC50 ± SD eqBuChE, BuChE from equine serum",0.94 ± 0.07 µM
same,SI = IC50 (AChE)/IC50 (BuChE),eqBuChE; eeAChE/eqBuChE,4.8
same,cytotoxicity on PC12 cells,PC12 cells,did not show any cytotoxicity
same,levels of IL-1β compared with model group,IL-1β,significantly decreased
